# Reference: patent publication US20110045102A1, “Cancer chemotherapy compositions comprising PI3K pathway modulators and triptolide” (priority 2005, published 2011)
# Assays:
# OCC1-SEAP cells = experiment: OCC1-SEAP cell response to carboplatin in vitro (DNA per well, SEAP in medium); assay type: cell-based, human
# Experimental: OCC1-SEAP-12 cells were grown in Ham's F-12 medium (Gibco) plus 10% calf serum then collected into Hank's balanced salt solution and counted for injection into nude mice. For in vitro assays OCC1-SEAP-12 cells were plated at sequential twofold dilutions and allowed to adhere to culture wells and incubated for 24 hours. Alternatively, OCC1-SEAP-12 cells were grown to 80% confluence in Ham's F-12 medium plus 10% calf serum. Cells were starved for 48 hours in DMEM plus 0.1% BSA and 0.1% calf serum. Experimental treatments were applied for 2 days in DMEM plus 0.1% BSA and 0.1% calf serum. At the end of the treatment period a sample of culture medium was taken for SEAP level determination. DNA assays were performed by discarding the remaining culture medium from over the cells, adding buffer solution, sonicating the cells in each well, and measuring the fluorescence of cell solution into which SYBR Green I fluorescent dye (Molecular Probes, Eugene, Oreg.) had been incorporated as previously described (Parrott and Skinner 1999).
# Blood plasma and cell culture medium samples were assayed for SEAP activity using the Great EscAPe SEAP fluorescence detection kit (Clontech Laboratories, Palo Alto, Calif.). SEAP is secreted at a constant rate by transfected tumor cells and distributed throughout the body or into the culture medium. SEAP is heat stable, so any endogenous alkaline phosphatase activity in blood plasma is destroyed by heat treatment of the samples (65° C. for 30 minutes) during the assay. The SEAP enzyme in each sample acts on the substrate 4-methylumbelliferyl phosphate during a 1 hour incubation at room temperature to produce a fluorescent product with excitation and emission peaks at 360 and 449 nm, respectively. A fluorimeter is then used to measure SEAP activity. The intra-assay and inter-assay coefficients of variation were 2.5% and 18.8%, respectively. Blood plasma samples were diluted 1:100 prior to the assay to bring values within the linear range of the standard curve.
# [1] = system: OCC1-SEAP ovarian cancer cells; experiment: Cell survival by DNA content of culture wells (Example II); assay type: cell-based, human; settings: 48 hours; triptolide 100 ng/ml, carboplatin 50 (FIG. 8 legend: mg/ml)
# Experimental: Cell survival was assessed as the number of cells remaining in culture, following exposure to treatments. The DNA content of individual culture wells was used as an indication of cell number. Cells plated in 24 well culture plates were allowed to approach confluence (80%) in Ham's F-12 medium plus 10% BCS. Cultures were then incubated in DMEM, plus 0.1% BSA and 0.1% BCS, in the presence of vehicle control, carboplatin (0-100 μg/ml), Triptolide (100 ng/ml) or a combination of these for 24 to 96 hrs. Media aliquots were taken when appropriate for SEAP analysis. The DNA was measured fluorometrically, as described above, in Example I. Briefly, the fluorescence of an aliquot of sonicated cell suspension, into which SYBR Green I fluorescent dye (Molecular Probes, Eugene, Oreg.), had been incorporated was measured.
# OCC1-SEAP tumor = experiment: Nude mouse tumor model, intraperitoneal OCC1-SEAP cells, plasma SEAP (Example II); assay type: in vivo; settings: carboplatin 60 mg/kg every other day for 5 days
# Description: Athymic nude mice (NCR Nu/Nu) were either purchased from Taconic (Germantown, N.Y.) or bred in-house at Washington State University, Pullman, Wash. The OCC1-SEAP cells were collected in Hank's balanced salt solution and counted prior to injection. Treatments were initiated 7 to 10 days following an intraperitoneal inoculation of mice with 1×10^7 OCC1-SEAP cells, as described above, in Example I.
# Stock solutions of carboplatin (paraplatin; Bristol-Myers Squibb, Princeton, N.J.) and TPL (Calbiochem, CA), were prepared in sterile filtered PBS and DMSO, respectively. Animals received intraperitoneal injections of either vehicle controlled (PBS containing 4% DMSO), or carboplatin (60 mg/kg), alone, or in combination with TPL (0-1.0 mg/kg), every other day for 5 days. Alternatively, TPL (0.15 mg/kg) was injected every day for 10 days. For these experiments, carboplatin was administered under the same schedule of every other day for 5 days. Some mice were also treated with 40 mg/kg of LY294002 every other day for 5 days, with an intraperitoneal injection in the presence of TPL and carboplatin. Blood samples were collected into capillary tubes from saphenous vein lancings at regular intervals during and following treatments. The capillary tubes were centrifuged and the plasma samples were frozen at −20° C., until the time of SEAP assay. The Washington State University Animal Care and Use Committee approved all procedures.
# Blood plasma and cell culture medium samples were assayed for SEAP activity using the Great EscAPe SEAP fluorescence detection kit (Clontech Laboratories, Palo Alto, Calif.), as described above in Example I. Blood plasma samples were diluted 1:100, prior to the assay to bring values within the linear range of the standard curve. The intraassay and interassay coefficients of variation were 2.5% and 18.8%, respectively. In the case of the experiments in which mice were treated with a combination of TPL, LY294002 and carboplatin, there was some variation in the extent of tumor growth in the control mice. In order to better compare response to treatment across experiments, the SEAP assay data between experiments were normalized by dividing each data point by the overall mean of all SEAP measurements from that experiment and up, through day 18. The normalized data then reflect the relative tumor burden of each mouse, compared to others in the experimental group, and can be combined across experiments.
# OCC1-SEAP-12 cells = experiment: Growth assay, [3H] thymidine incorporation (Example III); assay type: cell-based, human; settings: 18h treatment
# Experimental: Cell proliferation was analyzed by determining the amount of [^3H] thymidine incorporation Into newly synthesized DNA. The OCC1-SEAP-12 cells were plated in 24 well plates in Ham's F-12 medium plus 10% BCS and allowed to reach 50 to 70% confluence. Following a 48 hr serum starvation, the culture medium was changed to Dulbecco's Modified Eagle Medium (DMEM) plus 0.1% BSA and 0.1% BCS containing either vehicle control or carboplatin (0-100 μg/ml) alone, or in combination with LY294002 (0-20 μM). Treatments were removed after 18h and cells were incubated for 4 hr in medium containing 5 μCi/ml of [^3H] thymidine. Medium was removed and cells were disrupted by sonication in phosphate buffered saline (PBS). An aliquot of the sonicated solution of PBS was loaded onto a DEAE filtration plate (Millipore, Bedford, Mass.), and individual filters with bound DNA were collected for scintillation counting. Data was normalized to total DNA per well and was determined by a SYBR green fluorescent assay (Nilsson E E, Westfall S D, McDonald C, Ligon T, Sadler-Riggleman I, Skinner M K. An in vivo mouse reporter gene (human secreted alkaline phosphatase) model to monitor ovarian tumor growth and response to therapeutics. Cancer Chemother Pharmacol 2002; 49(2):93-100).
compound,measurement,setting,value
N.N.O=C([O-])C1(C(=O)[O-])CCC1.[Pt+2] [carboplatin],normalized SEAP production (SEAP per amount of DNA per well),OCC1-SEAP cells; 60 micro g/ml carboplatin for 48 hours vs control,did not change
same,SEAP levels in culture medium,"OCC1-SEAP cells; 60 micro g/ml carboplatin for 48 hours, control cells 11.1",3.9 ng per 25 micro liter
same,DNA levels,"OCC1-SEAP cells; 60 micro g/ml carboplatin for 48 hours, control cells 58 micro g/ml",35 micro g/ml
same,decrease in cell survival (μg DNA/ml) compared to control cultures,[1],30%
same,tumor burden vs vehicle control (FIG. 11),"OCC1-SEAP tumor; high dose, short duration: TPL 0.5 mg/kg",no significant difference
same,tumor burden as measured by SEAP levels vs vehicle control (FIG. 12),"OCC1-SEAP tumor; low dose, long duration: TPL 0.15 mg/kg every day for 10 days",no significant difference
same,block of basal DNA synthesis,OCC1-SEAP-12 cells; 20 μg/ml carboplatin,51%
same,block of basal DNA synthesis,OCC1-SEAP-12 cells; 50 μg/ml carboplatin,59.5%
